Experiment [1] concerns MYC RNA expression in MCF7 cells. As to the kind of experiment: RT-qPCR of MYC RNA expression. In kind it is cell-based, human. The conditions noted are these: MCF7 cells estrogen-deprived 3 days; 10 nM estrogen, or 10 nM estrogen and 5 uM 4-hydroxytamoxifen, 24 hours; normalized to GAPDH. The procedure:
RNA was isolated by AllPrep Kit (Qiagen 80204) followed by cDNA synthesis using High-Capacity cDNA Reverse Transcription Kit (Applies Biosystems 4368814). qPCR was performed in biological and technical triplicate using Power SYBR Green mix (Life Technologies #4367659) on a QuantStudio 6 System (Life Technologies). The following oligos was used in the qPCR; Myc fwd […] (SEQ ID NO: 255), MYC rev […] (SEQ ID NO: 256), GAPDH fwd […] (SEQ ID NO: 257), GAPDH rev […] (SEQ ID NO: 258). Fold change was calculated and MYC expression values were normalized to GAPDH expression.
(In general: In qPCR the cycle at which signal appears reflects the starting amount.)

Experiment [2] deals with MED1 signal at the MYC locus in MCF7 cells. In words: Immunofluorescence for MED1 with DNA FISH at the MYC locus. In kind it is cell-based, human. The conditions noted are these: MCF7 cells estrogen-deprived 3 days; 10 uM estradiol, or 10 uM estradiol and 5 uM 4-hydroxytamoxifen, 45 minutes. The procedure:
Human tumor tissues sliced at 10 μm thickness or cells grown on Poly-L-Ornithine coated glass were washed once with PBS and fixed in 4% Paraformaldehyde, PFA, (VWR, BT140770) for 10 minutes. After three washes in PBS for 5 min, cells were stored at 4° C. or transferred to a humidifying chamber and processed for immunofluorescence. Permeabilization of cells was performed using 0.5% triton X100 (Sigma Aldrich, X100) in PBS for 10 minutes followed by three PBS washes. Cells were blocked with 4% IgG-free Bovine Serum Albumin, BSA, (VWR, 102643-516) for 30 minutes and the indicated primary antibody (ER ab32063, MED1 ab64965) was added at a concentration of 1:500 in 4% IgG-free Bovine Serum Albumin for 4-16 hours. […]
For analysis of RNA/DNA FISH with immunofluorescence, custom Python scripts were written to process and analyze 3D image data gathered in FISH and IF channels. […] These FISH foci were filtered by various criteria, including size (minimum 100 voxels), circularity of a max z-projection (circularity=4pi*area/perimeter^2; 0.7), and being present in a nucleus (determined by nuclear mask described above). […] The IF signal centered at FISH foci for each FISH and IF pair are then combined and an average intensity projection is calculated, providing averaged data for IF signal intensity within a l×l square centered at FISH foci. […]

Experiment [3] relates to ER Y537S, ER D538G, ER-YAP1, ER-PCDH11X condensates with MED1. In words: In vitro droplet formation assay, mutant ER GFP fusion proteins and MED1. In kind it is biochemical. The conditions noted are these: all four mutant ER proteins; ligand 100 uM. The procedure: Recombinant GFP or mCherry fusion proteins were concentrated and desalted to an appropriate protein concentration and 125 mM NaCl using Amicon Ultra centrifugal filters (30K MWCO, Millipore). Recombinant proteins were added to solutions at varying concentrations with indicated final salt and 10% PEG-8000 as crowding agent in Droplet Formation Buffer (50 mM Tris-HCl pH 7.5, 10% glycerol, 1 mM DTT). The protein solution was immediately loaded onto a homemade chamber comprising a glass slide with a coverslip attached by two parallel strips of double-sided tape. Slides were then imaged with an Andor confocal microscope with a 150× objective. Unless indicated, images presented are of droplets settled on the glass coverslip. […] One microliter of this concentrated stock was used in a 10 uL droplet formation reaction to achieve a final concentration of 100 uM. To calculate enrichment for the in vitro droplet assay, droplets were defined as a region of interest in FIJI by the MED1 scaffold channel, and the maximum signal of the ER client within that droplet was determined. Alternatively, maximum signal of MED1 was measured. In all cases, the maximum signal was divided by the background client signal in the image to generate a Cin/out.

Each structure is given as a SMILES string.

For `CC/C(=C(\c1ccccc1)c1ccc(OCCN(C)C)cc1)c1ccccc1` [tamoxifen], the “MYC RNA expression” value in experiment [1] is on record as “reduced”. Moreover, the “MED1 signal at MYC” value in experiment [2] was “reduced”. Moreover, the “Condensate formation of mutant ER proteins with MED1” value in experiment [3] is recorded as “tamoxifen-insensitive”.
For the molecule `C[C@]12CC[C@@H]3c4ccc(O)cc4CC[C@H]3[C@@H]1CC[C@@H]2O` [estrogen, B-Estradiol], the “MYC RNA expression” value in experiment [1] is recorded as “increase”. Also, the “MED1 signal at MYC” value in experiment [2] is recorded as “enhanced”. The “Condensate formation of mutant ER proteins with MED1” value in experiment [3] is given as “estrogen-independent”.

Source of the values: patent publication US20220120736A1, “METHODS AND ASSAYS FOR MODULATING GENE TRANSCRIPTION BY MODULATING CONDENSATES” (Whitehead Institute for Biomedical Research, priority 2018, published 2022).
